In PMC3740347 (Journal of the American Chemical Society, 2013):
Like-named read-outs stand apart in the source and are kept apart here.

What was measured:
GST-VH1 [1] = target: T1, GST-VH1 (Vaccinia virus, UniProt P07239)
GST-VH1 [2] = target: T1, GST-VH1; settings: pH 7.4

Q: HQYFMpTEYVAT was tested. Which kcat/KM (GST-VH1 [1]) did it give?
A: The kcat/KM was 490 M⁻¹ s⁻¹.

Q: With YNAFAIpTAA [Peptide 2] as the substance, how does the “fold decrease of VH1 catalytic activity relative to parent peptide” value (GST-VH1 [1]) read?
A: The value was ~ 2 fold.

Q: And the Km (GST-VH1 [1]; pH 7.4)?
A: The Km was greater than 2000 µM.

Q: What about the kcat/KM (GST-VH1 [1]; pH 7.4) of the same substance?
A: Its kcat/KM is 93 ± 3 M⁻¹ s⁻¹.

Q: What does the source list for YDEDFpYDYEF [Peptide 26]?
A: Km (GST-VH1 [2]): 11 µM; kcat (GST-VH1 [2]): 2.6 s⁻¹

Q: With HQYFMpTEpYVAT as the substance, how does the kcat/KM (GST-VH1 [1]) read?
A: Its kcat/KM is 3200 M⁻¹ s⁻¹.
